Experimental data from patent US20080131384A1, “External Preparation for Skin Whitening, Whitening Agent, Whitening Method and Method of Production of External Preparation for Skin Whitening” (Shiseido Company, Ltd., priority 2004, published 2008).

System: Mouse B16 melanoma cells
Assay: Visual determination of melanin amount and number of cells in cultured B16 melanoma cells
Type: cell-based
Design: key: Good: whiter in comparison with the reference, and determined that the amount of melanin was small; Fair: slightly whiter in comparison with the reference, and determined that the amount of melanin was slightly small; Poor: equally white in comparison with the reference, and determined that the amount of melanin was almost the same
Conditions: 3 days incubation
Method: Mouse B16 melanoma cells were used. These were cultured in Eagle's MEM containing 10% FBS and theophylline (0.09 mg/ml) in a CO2 incubator (95% air, 5% carbon dioxide) at 37° C. After 24 hours of culture, the sample solution was added to give a final concentration of 2×10^−3 to 2×10^−5 weight % (as dried extract concentration). After further incubation for 3 days, the amount of melanin was determined visually by the following method.
A diffuser plate was placed on the lid of a well plate, the number of cells and the amount of melanin in the cells were observed by an inverted microscope and compared with a reference sample to which no plant extracts were added. The results are shown in Table I. Further, as a positive control, a similar examination as the above was performed for arbutin, which is already known to have an action suppressing melanin production.
Judgment Criteria • Good: whiter in comparison with the reference, and determined that the amount of melanin was small. • Fair: slightly whiter in comparison with the reference, and determined that the amount of melanin was slightly small. • Poor: equally white in comparison with the reference, and determined that the amount of melanin was almost the same.

In the case of OC[C@H]1O[C@@H](Oc2ccc(O)cc2)[C@H](O)[C@@H](O)[C@@H]1O [Arbutin, arbutin], the “Visual Evaluation of Melanin Production” value (sample concentration 0.001 mass %) is reported as “Fair” and the “Visual Evaluation of Melanin Production” value (sample concentration 0.002 mass %) is reported as “Good”.
